Assay results as given in ChEMBL document CHEMBL5096192, “Recent advancements in anti-leishmanial research: Synthetic strategies and structural activity relationships” (Eur J Med Chem, 2021).

Experiments:
Leishmania donovani = assay: Antileishmanial activity against Leishmania donovani MHOM/IN/80/Dd8 intracellular amastigotes transfected with firefly luciferase gene infected in mouse J774.A1 cells assessed as parasite growth inhibition incubated for 96 hrs by Steady Glo reagent based luminescence assay; assay type: functional, organism-based; conditions: MHOM/IN/80/Dd8, J774.A1, 96 h
[1] = biological target: Trypanothione reductase (Leishmania donovani) (UniProt P39050); assay: Inhibition of Leishmania donovani trypanothione reductase expressed in Escherichia coli BL21(DE3) using TS2 and NADPH as substrate at 100 uM preincubated for 5 mins followed by substrate addition by DTNB-reagent based spectrophotometric method
Leishmania amazonensis [2] = assay: Antileishmanial activity against promastigote form of Leishmania amazonensis MHOM/BR/79/Maria assessed as inhibition of parasite growth measured after 48 hrs by resazurin staining based fluorescence analysis; assay type: functional, organism-based
Leishmania amazonensis [3] = assay: Antileishmanial activity against Leishmania amazonensis MHOM/BR/79/Maria intracellular amastigotes infected in mouse J774 macrophages assessed as inhibition of parasite growth incubated for 48 hrs by fluorometric analysis; assay type: functional, organism-based; conditions: J774, 48 h
Leishmania infantum [4] = assay: Antileishmanial activity against Leishmania infantum MCAN/ES/92/BCN83 intracellular amastigotes infected in mouse J774 macrophages assessed as inhibition of parasite growth incubated for 48 hrs by fluorometric analysis; assay type: functional, organism-based; conditions: MCAN/ES/92/BCN83, J774, 48 h
Leishmania infantum [5] = assay: Antileishmanial activity against promastigote form of Leishmania infantum MCAN/ES/92/BCN83 assessed as inhibition of parasite growth measured after 48 hrs by resazurin staining based fluorescence analysis; assay type: functional, organism-based; conditions: MCAN/ES/92/BCN83, 48 h

Trypanothione reductase (Leishmania donovani), sequence (P39050 whole entry): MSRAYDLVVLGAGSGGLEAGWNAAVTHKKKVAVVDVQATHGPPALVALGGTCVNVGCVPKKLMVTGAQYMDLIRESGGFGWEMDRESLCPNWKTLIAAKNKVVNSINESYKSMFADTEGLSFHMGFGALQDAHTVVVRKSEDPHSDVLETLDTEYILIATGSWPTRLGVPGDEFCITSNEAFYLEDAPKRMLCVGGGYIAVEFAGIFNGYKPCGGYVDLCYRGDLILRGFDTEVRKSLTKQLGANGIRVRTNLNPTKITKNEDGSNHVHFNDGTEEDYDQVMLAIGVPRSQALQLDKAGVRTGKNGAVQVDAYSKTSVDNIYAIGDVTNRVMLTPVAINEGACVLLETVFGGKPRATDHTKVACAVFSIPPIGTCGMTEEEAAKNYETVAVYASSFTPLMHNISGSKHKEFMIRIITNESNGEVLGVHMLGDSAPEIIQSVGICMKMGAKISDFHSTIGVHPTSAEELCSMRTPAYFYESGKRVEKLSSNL

inhibition [1] | SMILES | IC50 (Leishmania donovani) | IC50 (Leishmania amazonensis [2]) | IC50 (Leishmania amazonensis [3]) | IC50 (Leishmania infantum [4]) | IC50 (Leishmania infantum [5])
87% | CCOC(=O)c1cc2c([nH]c3ccccc32)c(C(C(=O)NC(C)(C)C)N(Cc2ccc(CC)cc2)C(=O)c2ccccc2)n1 (stereo unspecified) | 2.43 µM |  |  |  | 
 | FC(F)(F)c1nc2cc(Cl)c(Cl)cc2[nH]1 |  | 4.11 µM | 9 µM | 15.8 µM | 8.63 µM
